The results in this text go back to ChEMBL document CHEMBL3867477 (Bioorg Med Chem Lett, 2016).

Cytochrome P450 3A4, sequence (P08684 whole entry): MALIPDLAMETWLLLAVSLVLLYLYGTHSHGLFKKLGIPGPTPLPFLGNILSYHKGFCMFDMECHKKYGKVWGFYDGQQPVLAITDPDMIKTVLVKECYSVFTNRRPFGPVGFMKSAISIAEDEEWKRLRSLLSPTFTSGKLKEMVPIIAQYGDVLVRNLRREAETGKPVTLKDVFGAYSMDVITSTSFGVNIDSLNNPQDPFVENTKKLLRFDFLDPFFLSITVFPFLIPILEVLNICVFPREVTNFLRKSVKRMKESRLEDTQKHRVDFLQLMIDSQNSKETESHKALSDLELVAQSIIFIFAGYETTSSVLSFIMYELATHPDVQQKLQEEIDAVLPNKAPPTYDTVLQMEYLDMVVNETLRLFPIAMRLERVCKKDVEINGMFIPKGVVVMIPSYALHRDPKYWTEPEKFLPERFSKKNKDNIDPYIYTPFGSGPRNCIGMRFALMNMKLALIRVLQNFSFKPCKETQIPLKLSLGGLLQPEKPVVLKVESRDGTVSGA

In the first series the test system is CHO. Description: Selectivity index, ratio of Ki for human OX2 receptor expressed on CHO cell membrane to Ki for Ile408-Val variant human OX1 receptor expressed on CHO cell membrane. The format is cell-based.
Consider `O=C(c1ccccc1-n1nccn1)N1CCC[C@@H](Oc2ccc3ccccc3n2)C1`, for which the Ratio Ki is 19.

For the compound `O=C(c1ccccc1-n1nccn1)N1CCC(F)(F)C(Oc2nc3ccccc3o2)C1` (stereo not drawn), the Ratio Ki is 9.5.

As to `Cc1ccc(-c2ncccn2)c(C(=O)N2CC(COc3ccc(F)cn3)CC[C@H]2C)c1` (stereo partly drawn), the Ratio Ki was 1.1.

In the case of `O=C(c1ccccc1F)N1CCC(F)(F)C(Oc2ccc3ccccc3n2)C1` (racemic), the Ratio Ki was greater than 77.

Turning to `O=C(c1ccccc1)N1CCC(F)(F)C(Oc2ccc3ccccc3n2)C1` (racemic), the Ratio Ki was greater than 230.

As for `C[C@@H]1CC[C@@H](Oc2ccc3ccccc3n2)CN1C(=O)c1ccccc1-n1nccn1`, the Ratio Ki was determined as 2.3.

`O=C(c1ccccc1-n1nccn1)N1CCC(F)(F)C(Oc2cc(C(F)(F)F)ccn2)C1` (stereo not drawn): the Ratio Ki came out at 0.05.

For the compound `O=C(c1ccccc1-n1nccn1)N1CCC(F)(F)C(Oc2cnc3ccccc3n2)C1` (stereo not drawn), the Ratio Ki was 72.

Regarding `O=C(c1cncc2[nH]ccc12)N1CCC(F)(F)[C@@H](Oc2ccc3ccccc3n2)C1`, the Ratio Ki was 386.

In the case of `O=C(c1cccc2ncccc12)N1CCC(F)(F)C(Oc2ccc3ccccc3n2)C1` (racemic), the Ratio Ki turned out to be 6.2.

Regarding `O=C(c1cccc(-n2nccn2)c1)N1CCC(F)(F)[C@@H](Oc2ccc3ccccc3n2)C1`, the Ratio Ki amounted to 104.

With `O=C(c1cccc(-c2ncc[nH]2)c1)N1CCC(F)(F)[C@@H](Oc2ccc3ccccc3n2)C1`, the Ratio Ki lay in the range of 1000 to 1380.

`O=C(c1ccccc1-n1nccn1)N1CCC(F)(F)C(Oc2ccc3ccccc3n2)C1` (racemic): the Ratio Ki was 292.

The target in a further series is Voltage-dependent L-type calcium channel subunit alpha-1C (Homo sapiens, UniProt Q13936). Briefly: Inhibition of Cav1.2 (unknown origin).
Voltage-dependent L-type calcium channel subunit alpha-1C, sequence (Q13936 whole entry): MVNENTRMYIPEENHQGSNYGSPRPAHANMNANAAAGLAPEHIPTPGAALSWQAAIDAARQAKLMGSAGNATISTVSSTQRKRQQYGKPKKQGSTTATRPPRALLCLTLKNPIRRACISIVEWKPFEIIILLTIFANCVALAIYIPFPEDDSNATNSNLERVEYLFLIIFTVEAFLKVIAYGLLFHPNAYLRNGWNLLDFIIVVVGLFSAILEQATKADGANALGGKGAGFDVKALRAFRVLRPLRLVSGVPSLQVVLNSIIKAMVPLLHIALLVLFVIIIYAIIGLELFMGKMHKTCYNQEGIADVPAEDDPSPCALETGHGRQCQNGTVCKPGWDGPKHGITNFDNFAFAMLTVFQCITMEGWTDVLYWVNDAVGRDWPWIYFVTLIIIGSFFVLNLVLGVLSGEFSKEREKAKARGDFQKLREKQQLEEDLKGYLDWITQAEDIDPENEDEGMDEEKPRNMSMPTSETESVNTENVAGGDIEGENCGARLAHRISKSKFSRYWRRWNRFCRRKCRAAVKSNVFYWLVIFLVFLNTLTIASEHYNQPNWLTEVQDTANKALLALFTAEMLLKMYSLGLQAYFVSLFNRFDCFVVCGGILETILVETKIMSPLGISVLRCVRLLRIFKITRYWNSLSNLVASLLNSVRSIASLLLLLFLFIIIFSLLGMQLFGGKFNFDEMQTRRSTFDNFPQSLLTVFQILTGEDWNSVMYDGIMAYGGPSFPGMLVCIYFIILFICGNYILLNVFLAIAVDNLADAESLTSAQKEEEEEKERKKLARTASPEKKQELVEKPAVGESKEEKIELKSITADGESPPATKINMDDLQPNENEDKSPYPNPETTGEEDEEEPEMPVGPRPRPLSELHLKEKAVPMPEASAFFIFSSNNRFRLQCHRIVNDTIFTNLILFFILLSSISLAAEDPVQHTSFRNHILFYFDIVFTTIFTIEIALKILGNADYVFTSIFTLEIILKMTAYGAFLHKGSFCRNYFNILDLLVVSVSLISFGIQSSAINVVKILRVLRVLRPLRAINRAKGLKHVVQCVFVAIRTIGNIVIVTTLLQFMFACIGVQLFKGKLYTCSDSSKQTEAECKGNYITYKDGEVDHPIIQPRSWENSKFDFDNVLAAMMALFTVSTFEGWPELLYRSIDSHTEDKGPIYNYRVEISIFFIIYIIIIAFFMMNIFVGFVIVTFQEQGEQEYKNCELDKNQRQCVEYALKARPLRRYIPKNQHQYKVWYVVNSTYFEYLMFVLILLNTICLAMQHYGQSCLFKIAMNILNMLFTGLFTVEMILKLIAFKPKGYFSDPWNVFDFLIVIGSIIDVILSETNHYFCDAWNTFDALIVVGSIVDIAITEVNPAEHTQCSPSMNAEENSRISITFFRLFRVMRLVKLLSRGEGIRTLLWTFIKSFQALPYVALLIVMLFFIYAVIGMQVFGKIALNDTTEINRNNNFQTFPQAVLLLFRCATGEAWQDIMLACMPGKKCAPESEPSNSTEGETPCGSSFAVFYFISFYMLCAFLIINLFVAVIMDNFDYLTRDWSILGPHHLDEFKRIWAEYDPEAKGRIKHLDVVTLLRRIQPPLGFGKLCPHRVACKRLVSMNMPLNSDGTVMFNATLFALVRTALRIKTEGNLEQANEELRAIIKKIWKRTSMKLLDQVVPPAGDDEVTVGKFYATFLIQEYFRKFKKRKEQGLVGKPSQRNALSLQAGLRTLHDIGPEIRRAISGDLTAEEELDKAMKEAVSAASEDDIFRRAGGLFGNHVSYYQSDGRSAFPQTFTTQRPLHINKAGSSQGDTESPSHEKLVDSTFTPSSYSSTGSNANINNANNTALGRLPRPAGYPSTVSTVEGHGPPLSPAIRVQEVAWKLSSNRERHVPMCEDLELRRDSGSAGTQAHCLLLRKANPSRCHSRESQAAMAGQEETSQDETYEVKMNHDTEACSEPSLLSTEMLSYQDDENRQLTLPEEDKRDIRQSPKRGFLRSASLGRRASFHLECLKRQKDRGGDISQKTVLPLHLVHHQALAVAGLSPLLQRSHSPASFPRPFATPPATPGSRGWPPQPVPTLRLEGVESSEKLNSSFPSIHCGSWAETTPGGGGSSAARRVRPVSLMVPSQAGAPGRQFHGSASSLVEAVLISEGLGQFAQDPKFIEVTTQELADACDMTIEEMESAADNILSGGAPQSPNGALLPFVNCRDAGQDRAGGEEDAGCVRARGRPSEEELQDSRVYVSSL
In the case of `O=C(c1ccccc1-n1nccn1)N1CCC(F)(F)C(Oc2nc3ccccc3o2)C1` (stereo not drawn), the “inhibition (INH)” value is given as “Active”.

With `O=C(c1ccccc1F)N1CCC(F)(F)C(Oc2ccc3ccccc3n2)C1` (racemic), the “inhibition (INH)” value is listed as “Active”.

Regarding `O=C(c1ccccc1)N1CCC(F)(F)C(Oc2ccc3ccccc3n2)C1` (racemic), the “inhibition (INH)” value is “Active”.

Regarding `O=C(c1ccccc1-n1nccn1)N1CCC(F)(F)C(Oc2cc(C(F)(F)F)ccn2)C1` (stereo not drawn), the “inhibition (INH)” value was “Active”.

Take `O=C(c1ccccc1-n1nccn1)N1CCC(F)(F)C(Oc2cnc3ccccc3n2)C1` (stereo not drawn): the “inhibition (INH)” value is listed as “Active”.

For `O=C(c1ccccc1-n1nccn1)N1CCC(F)(F)C(Oc2ccc3cccnc3n2)C1` (stereo not drawn), the “inhibition (INH)” value is given as “Active”.

Test system in a further series: not listed separately
Description: Displacement of (2S)-N-(2-phenylphenyl)-1-[2-[1-(tritritiomethyl)benzimidazol-2-yl]sulfanylacetyl]pyrrolidine-2-carboxamide from human OX1 receptor Ile408-Val mutant expressed on CHO cell membrane measured after 3 hrs by TopCount method. Format: cell membranes.
What is called Ki is the equilibrium dissociation constant of an inhibitor or competing ligand from its target. A higher Ki goes with lower affinity. Compound `O=C(c1ccccc1-n1nccn1)N1CCC(F)(F)C(O)C1` (stereo not drawn) yielded a Ki of 2240 nM.

Consider `COc1ccc(C[C@H]2c3cc(OC)c(OC)cc3CCN2[C@@H](C(=O)NC(C)C)c2ccccc2)cc1OC`, for which the Ki worked out at 6 nM.

`O=C(c1ccccc1-n1nccn1)N1CCC[C@@H](Oc2ccc3ccccc3n2)C1` gave a Ki of 1.4 nM.

On to `O=C(c1ccccc1-n1nccn1)N1CCC(F)(F)C(Oc2nc3ccccc3o2)C1` (stereo not drawn), for which the affinity, expressed as Ki, was 49 nM.

For the compound `Cc1ccc(-c2ncccn2)c(C(=O)N2CC(COc3ccc(F)cn3)CC[C@H]2C)c1` (stereo partly drawn), the affinity, expressed as Ki, was 11 nM.

Consider `O=C(c1ccccc1F)N1CCC(F)(F)C(Oc2ccc3ccccc3n2)C1` (racemic), for which the Ki amounted to 23 nM.

As to `O=C(c1ccccc1)N1CCC(F)(F)C(Oc2ccc3ccccc3n2)C1` (racemic), the affinity, expressed as Ki, was 55 nM.

As for `C[C@@H]1CC[C@@H](Oc2ccc3ccccc3n2)CN1C(=O)c1ccccc1-n1nccn1`, affinity was put at a Ki of 3.9 nM. This Ki lies about 14-fold lower than the previous one.

Turning to `O=C(c1ccccc1-n1nccn1)N1CCC(F)(F)C(Oc2cc(C(F)(F)F)ccn2)C1` (stereo not drawn), the Ki was found to be 292 nM.

Regarding `O=C(c1ccccc1-n1nccn1)N1CCC(F)(F)C(Oc2cnc3ccccc3n2)C1` (stereo not drawn), the Ki is 13 nM.

`O=C(c1cncc2[nH]ccc12)N1CCC(F)(F)[C@@H](Oc2ccc3ccccc3n2)C1`: the affinity corresponds to a Ki of 0.28 nM.

`O=C(c1cccc2ncccc12)N1CCC(F)(F)C(Oc2ccc3ccccc3n2)C1` (racemic) registered a Ki of 140 nM.

`O=C(c1cccc(-n2nccn2)c1)N1CCC(F)(F)[C@@H](Oc2ccc3ccccc3n2)C1` returned a Ki of 8.3 nM.

`O=C(c1cccc(-c2ncc[nH]2)c1)N1CCC(F)(F)[C@@H](Oc2ccc3ccccc3n2)C1` yielded a Ki of 0.14 nM.

In the case of `O=C(c1ccccc1-n1nccn1)N1CCC(F)(F)C(Oc2ccc3ccccc3n2)C1` (racemic), the affinity corresponds to a Ki of 3.9 nM.

With `O=C(c1ccccc1-n1nccn1)N1CCC(F)(F)C(Oc2ccc3cccnc3n2)C1` (stereo not drawn), the affinity, expressed as Ki, was 1160 nM. Compared with the last compound, the Ki is about 300-fold higher.

In a further series the target is Cytochrome P450 2C9 (Homo sapiens, UniProt P11712). Briefly: Inhibition of CYP2C9 (unknown origin). Format: ADME.
Cytochrome P450 2C9, sequence (P11712 whole entry): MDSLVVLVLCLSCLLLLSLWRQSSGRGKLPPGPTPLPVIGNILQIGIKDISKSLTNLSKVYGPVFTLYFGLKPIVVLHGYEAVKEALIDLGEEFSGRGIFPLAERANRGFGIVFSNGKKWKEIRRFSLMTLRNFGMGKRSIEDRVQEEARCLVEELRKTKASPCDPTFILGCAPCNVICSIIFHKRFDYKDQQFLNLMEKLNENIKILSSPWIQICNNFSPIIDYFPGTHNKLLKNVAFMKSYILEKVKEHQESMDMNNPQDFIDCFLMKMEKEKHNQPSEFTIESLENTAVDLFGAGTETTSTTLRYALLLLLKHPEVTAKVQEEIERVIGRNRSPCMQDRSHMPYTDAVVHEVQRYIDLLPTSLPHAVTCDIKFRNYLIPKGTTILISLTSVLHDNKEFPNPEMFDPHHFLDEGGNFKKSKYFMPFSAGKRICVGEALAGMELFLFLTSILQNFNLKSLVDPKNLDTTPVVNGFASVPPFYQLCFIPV
Take `O=C(c1ccccc1-n1nccn1)N1CCC(F)(F)C(Oc2nc3ccccc3o2)C1` (stereo not drawn): the “inhibition (INH)” value is on record as “Active”.

On to `O=C(c1ccccc1F)N1CCC(F)(F)C(Oc2ccc3ccccc3n2)C1` (racemic), for which the “inhibition (INH)” value is recorded as “Active”.

On to `O=C(c1ccccc1)N1CCC(F)(F)C(Oc2ccc3ccccc3n2)C1` (racemic), for which the “inhibition (INH)” value is listed as “Active”.

Turning to `O=C(c1ccccc1-n1nccn1)N1CCC(F)(F)C(Oc2cc(C(F)(F)F)ccn2)C1` (stereo not drawn), the “inhibition (INH)” value was “Active”.

Consider `O=C(c1ccccc1-n1nccn1)N1CCC(F)(F)C(Oc2cnc3ccccc3n2)C1` (stereo not drawn), for which the “inhibition (INH)” value was “Active”.

For `O=C(c1ccccc1-n1nccn1)N1CCC(F)(F)C(Oc2ccc3cccnc3n2)C1` (stereo not drawn), the “inhibition (INH)” value is given as “Active”.

Test system in another series: not listed separately
Briefly: Solubility of the compound. Format: physicochemical.
In the case of `O=C(c1ccccc1-n1nccn1)N1CCC(F)(F)C(Oc2nc3ccccc3o2)C1` (stereo not drawn), the solubility result is listed as “Insoluble”.

As to `O=C(c1ccccc1F)N1CCC(F)(F)C(Oc2ccc3ccccc3n2)C1` (racemic), the solubility result is listed as “Insoluble”.

For `O=C(c1ccccc1)N1CCC(F)(F)C(Oc2ccc3ccccc3n2)C1` (racemic), the solubility entry is “Insoluble”.

On to `O=C(c1ccccc1-n1nccn1)N1CCC(F)(F)C(Oc2cc(C(F)(F)F)ccn2)C1` (stereo not drawn), for which the solubility entry is listed as “Insoluble”.

On to `O=C(c1ccccc1-n1nccn1)N1CCC(F)(F)C(Oc2cnc3ccccc3n2)C1` (stereo not drawn), for which the solubility entry was “Insoluble”.

`O=C(c1ccccc1-n1nccn1)N1CCC(F)(F)C(Oc2ccc3cccnc3n2)C1` (stereo not drawn): the solubility result was “Insoluble”.

Another series addresses Cytochrome P450 3A4 (Homo sapiens, UniProt P08684). Description: Inhibition of CYP3A4 (unknown origin). The format is ADME.
Turning to `O=C(c1ccccc1-n1nccn1)N1CCC(F)(F)C(Oc2nc3ccccc3o2)C1` (stereo not drawn), the “inhibition (INH)” value is listed as “Active”.

With `O=C(c1ccccc1F)N1CCC(F)(F)C(Oc2ccc3ccccc3n2)C1` (racemic), the “inhibition (INH)” value is listed as “Active”.

`O=C(c1ccccc1)N1CCC(F)(F)C(Oc2ccc3ccccc3n2)C1` (racemic): the “inhibition (INH)” value is “Active”.

As for `O=C(c1ccccc1-n1nccn1)N1CCC(F)(F)C(Oc2cc(C(F)(F)F)ccn2)C1` (stereo not drawn), the “inhibition (INH)” value is on record as “Active”.

Take `O=C(c1ccccc1-n1nccn1)N1CCC(F)(F)C(Oc2cnc3ccccc3n2)C1` (stereo not drawn): the “inhibition (INH)” value is on record as “Active”.

As to `O=C(c1ccccc1-n1nccn1)N1CCC(F)(F)C(Oc2ccc3cccnc3n2)C1` (stereo not drawn), the “inhibition (INH)” value was “Active”.

A further series has as its target T1, Orexin receptor type 2 (Homo sapiens, UniProt O43614).
T1 sequence (O43614 whole entry): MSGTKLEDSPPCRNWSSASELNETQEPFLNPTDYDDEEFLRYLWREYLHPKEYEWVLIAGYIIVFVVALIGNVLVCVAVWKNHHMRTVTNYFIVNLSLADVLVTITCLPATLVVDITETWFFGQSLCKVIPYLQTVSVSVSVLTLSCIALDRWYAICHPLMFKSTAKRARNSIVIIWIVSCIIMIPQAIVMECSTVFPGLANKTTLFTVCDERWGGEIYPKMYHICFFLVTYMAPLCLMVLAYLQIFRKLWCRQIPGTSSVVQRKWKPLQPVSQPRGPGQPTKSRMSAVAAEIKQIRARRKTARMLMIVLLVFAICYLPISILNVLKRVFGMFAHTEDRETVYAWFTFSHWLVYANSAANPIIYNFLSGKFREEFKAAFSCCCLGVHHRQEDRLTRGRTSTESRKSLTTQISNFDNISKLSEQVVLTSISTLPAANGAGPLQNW
Briefly: Displacement of (2S)-N-(2-pyrrol-1-ylphenyl)-1-[2-[1-(tritritiomethyl)benzimidazol-2-yl]sulfanylacetyl]pyrrolidine-2-carboxamide from human OX2 receptor expressed on CHO cell membrane measured after 3 hrs by TopCount method. The format is cell membranes.
As for `O=C(c1ccccc1-n1nccn1)N1CCC(F)(F)C(O)C1` (stereo not drawn), the Ki was greater than 3370 nM.

In turn, `O=C(c1ccccc1-n1nccn1)N1CCC[C@@H](Oc2ccc3ccccc3n2)C1` registered a Ki of 27 nM.

In turn, `O=C(c1ccccc1-n1nccn1)N1CCC(F)(F)C(Oc2nc3ccccc3o2)C1` (stereo not drawn) came in with a Ki of 467 nM.

For the compound `Cc1ccc(-c2ncccn2)c(C(=O)N2CC(COc3ccc(F)cn3)CC[C@H]2C)c1` (stereo partly drawn), the affinity corresponds to a Ki of 11 nM.

`O=C(c1ccccc1F)N1CCC(F)(F)C(Oc2ccc3ccccc3n2)C1` (racemic) returned a Ki greater than 1770 nM.

`O=C(c1ccccc1)N1CCC(F)(F)C(Oc2ccc3ccccc3n2)C1` (racemic) yielded a Ki greater than 12700 nM.

Regarding `C[C@@H]1CC[C@@H](Oc2ccc3ccccc3n2)CN1C(=O)c1ccccc1-n1nccn1`, the Ki was found to be 9 nM.

Compound `O=C(c1ccccc1-n1nccn1)N1CCC(F)(F)C(Oc2cc(C(F)(F)F)ccn2)C1` (stereo not drawn) came in with a Ki of 14 nM.

As for `O=C(c1ccccc1-n1nccn1)N1CCC(F)(F)C(Oc2cnc3ccccc3n2)C1` (stereo not drawn), the Ki worked out at 933 nM.

For `O=C(c1cncc2[nH]ccc12)N1CCC(F)(F)[C@@H](Oc2ccc3ccccc3n2)C1`, the affinity, expressed as Ki, was 108 nM. This Ki is about 8.6-fold lower than that of the compound before.

`O=C(c1cccc2ncccc12)N1CCC(F)(F)C(Oc2ccc3ccccc3n2)C1` (racemic): the affinity corresponds to a Ki of 861 nM.

Turning to `O=C(c1cccc(-n2nccn2)c1)N1CCC(F)(F)[C@@H](Oc2ccc3ccccc3n2)C1`, the Ki turned out to be 871 nM. This Ki and that of the compound before are within 1.5-fold of each other.

For the compound `O=C(c1cccc(-c2ncc[nH]2)c1)N1CCC(F)(F)[C@@H](Oc2ccc3ccccc3n2)C1`, the affinity, expressed as Ki, was 193 nM. This Ki lies about 4.5-fold lower than the previous one.

For the compound `O=C(c1ccccc1-n1nccn1)N1CCC(F)(F)C(Oc2ccc3ccccc3n2)C1` (racemic), the Ki amounted to 1140 nM.

`O=C(c1ccccc1-n1nccn1)N1CCC(F)(F)C(Oc2ccc3cccnc3n2)C1` (stereo not drawn) returned a Ki greater than 1410 nM.
